According to ChEMBL document CHEMBL1201862, “PubChem BioAssay data set” (2004):
Activity calls are given as the source filed them.

Key:
ORF 73 = ORF 73 (Human herpesvirus 8, UniProt O40947); assay: KSHV LANA DNA-binding disruption – biochemical, fluorescence polarization, cherry-picked samples, dose response (AID 504725); design: species or system Human gammaherpesvirus 8;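 also: fluorescence polarization of a labeled DNA duplex reporting LANA DNA binding; potency is for inhibitors that block LANA binding to the DNA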
ORF 73, sequence (O40947 whole entry): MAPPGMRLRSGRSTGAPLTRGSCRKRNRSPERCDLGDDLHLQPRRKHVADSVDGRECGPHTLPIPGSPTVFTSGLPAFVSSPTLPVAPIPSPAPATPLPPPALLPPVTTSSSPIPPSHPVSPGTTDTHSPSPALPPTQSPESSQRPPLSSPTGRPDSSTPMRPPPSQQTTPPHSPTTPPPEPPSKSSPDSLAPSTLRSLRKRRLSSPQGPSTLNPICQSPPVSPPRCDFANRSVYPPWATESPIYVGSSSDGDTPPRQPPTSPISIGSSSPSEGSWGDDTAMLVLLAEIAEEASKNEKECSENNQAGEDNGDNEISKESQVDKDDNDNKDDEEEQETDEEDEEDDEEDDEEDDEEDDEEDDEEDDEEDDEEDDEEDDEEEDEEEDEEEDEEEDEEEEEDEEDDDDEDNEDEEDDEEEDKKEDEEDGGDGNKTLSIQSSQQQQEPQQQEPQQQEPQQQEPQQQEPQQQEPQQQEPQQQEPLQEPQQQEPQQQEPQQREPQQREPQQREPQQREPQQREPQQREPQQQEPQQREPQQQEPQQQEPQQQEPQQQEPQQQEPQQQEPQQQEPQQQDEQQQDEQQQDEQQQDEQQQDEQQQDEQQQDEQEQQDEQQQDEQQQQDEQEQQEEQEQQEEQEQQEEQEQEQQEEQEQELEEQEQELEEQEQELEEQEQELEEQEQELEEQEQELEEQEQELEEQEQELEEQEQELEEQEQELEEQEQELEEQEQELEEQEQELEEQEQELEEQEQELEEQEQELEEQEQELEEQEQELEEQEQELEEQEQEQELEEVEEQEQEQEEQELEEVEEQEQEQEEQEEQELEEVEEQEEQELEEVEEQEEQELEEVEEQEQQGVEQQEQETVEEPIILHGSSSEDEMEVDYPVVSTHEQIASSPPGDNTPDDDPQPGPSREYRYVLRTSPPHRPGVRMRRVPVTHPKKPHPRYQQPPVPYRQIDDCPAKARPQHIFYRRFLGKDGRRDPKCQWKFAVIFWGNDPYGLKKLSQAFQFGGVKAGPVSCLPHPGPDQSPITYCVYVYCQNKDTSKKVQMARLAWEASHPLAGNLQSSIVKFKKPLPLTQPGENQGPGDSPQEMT

Salmon testes DNA = assay: acridine orange-DNA binding displacement – biochemical, fluorescence polarization, cherry-picked samples, set 2, artefact control for KSHV LANA DNA-binding inhibitor project, dose response (AID 504727); design: species or system Salmonidae
Keap1/Nrf2 = Keap1/Nrf2 (Homo sapiens, UniProt Q14145); assay: disruptors of Keap1 binding to Nrf2 peptide – biochemical, fluorescence polarization, cherry-picked samples, dose response (AID 588683)
Keap1/Nrf2, sequence (Q16236 whole entry): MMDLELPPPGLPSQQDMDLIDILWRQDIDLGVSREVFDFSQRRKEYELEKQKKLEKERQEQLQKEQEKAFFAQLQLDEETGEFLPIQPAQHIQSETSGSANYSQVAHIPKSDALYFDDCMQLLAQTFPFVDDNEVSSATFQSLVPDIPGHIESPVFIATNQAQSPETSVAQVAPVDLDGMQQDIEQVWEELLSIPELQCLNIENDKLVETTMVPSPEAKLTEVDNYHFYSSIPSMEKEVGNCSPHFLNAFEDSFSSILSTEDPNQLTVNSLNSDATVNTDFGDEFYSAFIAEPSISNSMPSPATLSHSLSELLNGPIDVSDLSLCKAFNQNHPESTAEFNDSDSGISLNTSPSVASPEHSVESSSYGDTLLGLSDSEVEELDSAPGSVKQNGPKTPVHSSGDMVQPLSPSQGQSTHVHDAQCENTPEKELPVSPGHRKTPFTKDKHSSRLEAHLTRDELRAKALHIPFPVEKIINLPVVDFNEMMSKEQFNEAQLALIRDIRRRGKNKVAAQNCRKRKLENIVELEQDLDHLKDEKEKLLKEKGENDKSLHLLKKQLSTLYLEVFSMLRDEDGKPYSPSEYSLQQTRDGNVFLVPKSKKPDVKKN
Keap1/Nrf2, sequence (Q14145 whole entry): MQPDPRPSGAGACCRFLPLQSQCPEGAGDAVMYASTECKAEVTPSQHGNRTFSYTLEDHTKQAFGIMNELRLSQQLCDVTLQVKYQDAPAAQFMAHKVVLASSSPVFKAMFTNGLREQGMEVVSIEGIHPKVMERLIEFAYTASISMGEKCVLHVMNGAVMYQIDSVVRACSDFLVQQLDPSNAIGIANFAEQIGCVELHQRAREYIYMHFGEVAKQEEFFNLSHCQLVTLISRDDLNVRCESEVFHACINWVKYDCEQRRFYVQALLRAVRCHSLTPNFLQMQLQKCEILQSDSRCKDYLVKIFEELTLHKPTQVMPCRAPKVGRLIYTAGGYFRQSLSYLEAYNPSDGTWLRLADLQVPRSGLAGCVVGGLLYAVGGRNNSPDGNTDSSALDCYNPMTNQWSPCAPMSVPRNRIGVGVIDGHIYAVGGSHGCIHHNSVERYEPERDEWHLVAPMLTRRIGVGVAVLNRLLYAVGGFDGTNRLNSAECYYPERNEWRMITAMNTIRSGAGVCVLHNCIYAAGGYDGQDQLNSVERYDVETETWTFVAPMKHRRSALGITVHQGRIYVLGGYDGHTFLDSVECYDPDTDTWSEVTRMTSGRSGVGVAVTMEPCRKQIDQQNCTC

[1] = compound autofluorescence in calcium buffer – biochemical, fluorescence, no RTF in test wells, artefact control for cardiac thin filament activator project, dose response (AID 504697)
Troponin, cardiac muscle = Troponin, cardiac muscle (Homo sapiens, UniProt P19429+P45379+P63316); assay: Fluorescence-based biochemical high throughput dose response assay for activators of the calcium sensitivity of cardiac Regulated Thin Filaments (RTF). [Related pubchem assays (depositor defined):AID493008, AID493018, AID504382, AID504383]; format: protein-complex assay
X-box-binding protein 1 = X-box-binding protein 1 (Homo sapiens, UniProt P17861); format: functional, Cricetulus griseus;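 also: confirmatory dose-response counter-screen serving a CHOP assay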
X-box-binding protein 1, sequence (P17861 whole entry): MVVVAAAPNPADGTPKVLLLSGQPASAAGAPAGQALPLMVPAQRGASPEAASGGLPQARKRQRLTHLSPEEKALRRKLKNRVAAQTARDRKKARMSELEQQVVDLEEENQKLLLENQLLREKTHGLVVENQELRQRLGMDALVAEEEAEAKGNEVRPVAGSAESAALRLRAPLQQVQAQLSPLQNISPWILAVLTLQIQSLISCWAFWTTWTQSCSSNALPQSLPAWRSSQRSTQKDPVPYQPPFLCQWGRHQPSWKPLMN

[2] = target: DNA damage-inducible transcript 3 protein (Mus musculus, UniProt P35639); format: functional, Cricetulus griseus
DNA damage-inducible transcript 3 protein, sequence (P35639 whole entry): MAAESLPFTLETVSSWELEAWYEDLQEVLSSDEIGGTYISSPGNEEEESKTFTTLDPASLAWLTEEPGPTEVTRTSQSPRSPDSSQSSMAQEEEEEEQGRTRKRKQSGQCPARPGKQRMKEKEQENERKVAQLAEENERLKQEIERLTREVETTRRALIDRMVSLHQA

Genome polyprotein = Genome polyprotein (dengue virus type 2, UniProt P29990); assay: flavivirus cap methylation enzyme inhibition – biochemical, confirmation dose response, primary screen (AID 588689); format: functional
Genome polyprotein, sequence (P29990 2492-3391 limits assumed): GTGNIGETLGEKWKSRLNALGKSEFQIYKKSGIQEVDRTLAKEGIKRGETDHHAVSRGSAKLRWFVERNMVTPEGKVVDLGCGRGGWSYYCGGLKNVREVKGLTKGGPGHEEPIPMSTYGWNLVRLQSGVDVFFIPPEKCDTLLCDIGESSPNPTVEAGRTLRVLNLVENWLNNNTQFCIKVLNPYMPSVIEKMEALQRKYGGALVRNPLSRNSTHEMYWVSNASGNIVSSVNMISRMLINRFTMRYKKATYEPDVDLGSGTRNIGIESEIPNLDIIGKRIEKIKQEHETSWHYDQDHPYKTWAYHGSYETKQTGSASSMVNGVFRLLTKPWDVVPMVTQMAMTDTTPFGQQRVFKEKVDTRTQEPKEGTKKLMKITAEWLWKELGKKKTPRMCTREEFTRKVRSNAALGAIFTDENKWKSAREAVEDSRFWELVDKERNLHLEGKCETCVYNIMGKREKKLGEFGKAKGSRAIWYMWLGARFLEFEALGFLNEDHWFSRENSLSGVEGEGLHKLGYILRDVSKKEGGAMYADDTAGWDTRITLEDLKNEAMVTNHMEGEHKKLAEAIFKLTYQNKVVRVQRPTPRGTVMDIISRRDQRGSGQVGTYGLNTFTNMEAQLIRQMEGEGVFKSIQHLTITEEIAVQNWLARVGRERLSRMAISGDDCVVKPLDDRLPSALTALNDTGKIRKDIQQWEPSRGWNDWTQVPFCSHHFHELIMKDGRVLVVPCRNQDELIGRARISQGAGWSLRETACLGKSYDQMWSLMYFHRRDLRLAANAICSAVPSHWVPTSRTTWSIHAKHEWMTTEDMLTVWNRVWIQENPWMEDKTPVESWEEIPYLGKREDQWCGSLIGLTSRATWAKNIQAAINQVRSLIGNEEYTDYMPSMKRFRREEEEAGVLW

[3] = A small molecule screen for inhibitors of the PhoP region in Salmonella typhi (5) using purified and synthesized compounds. [Related pubchem assays (depositor defined):AID1850, AID1864, AID1985, AID2252, AID2384, AID2612, AID2811, AID434995]; format: functional
[4] = Luminescence Cell-Based Dose Confirmation HTS to Identify Inhibitors of 5'UTR Stem-Loop Driven Alpha-Synuclein mRNA Translation in H4 Neuroglioblastoma Cells. [Related pubchem assays: 1827 (Project Summary), 1813 (Primary HTS)]; format: functional
[5] = Luminescence Cell-Based Dose Response HTS to Identify Activators of 5'UTR Stem-Loop Driven Prion Protein mRNA Translation in H4-C Neuroglioblastoma Cells. [Related pubchem assays: 1829 (Project Summary), 1814 (Primary HTS)]; format: functional
[6] = Luminescence Cell-Based Dose Retest to Confirm Activators of 5'UTR Stem-Loop Driven Alpha-Synuclein mRNA Translation in H4 Neuroglioblastoma Cells. [Related pubchem assays (depositor defined):AID1813, AID1829]; format: functional
[7] = Luminescence Cell-Based Dose Response HTS to Identify Activators of Luciferase Translation or Activity in H4-C Neuroglioblastoma Cells. [Related pubchem assays: 1829 (Project Summary), 1814 (Primary HTS)]; format: functional
[8] = Luminescence Cell-Based Dose HTS Response to Identify Inhibitors of 5'UTR Stem-Loop Driven Prion Protein mRNA Translation in H4-C Neuroglioblastoma Cells. [Related pubchem assays (depositor defined):AID1814, AID1827]; format: functional
[9] = Luminescence Cell-Based Dose Response HTS to Identify Inhibitors of Luciferase Translation or Activity in H4-C Neuroglioblastoma Cells. [Related pubchem assays: 1813 (Primary HTS), 1827 (Project Summary)]; format: functional
[10] = target: Sphingosine 1-phosphate receptor 4 (Homo sapiens, UniProt O95977); assay: Late-stage fluorescence dose response cell-based assay to identify agonists of the Sphingosine 1-Phosphate Receptor 4 (S1P4): purchased compounds EC50. [Related pubchem assays (depositor defined):AID1509, AID1523, AID1563, AID1686, AID1701, AID1801]; format: functional
Sphingosine 1-phosphate receptor 4, sequence (O95977 whole entry): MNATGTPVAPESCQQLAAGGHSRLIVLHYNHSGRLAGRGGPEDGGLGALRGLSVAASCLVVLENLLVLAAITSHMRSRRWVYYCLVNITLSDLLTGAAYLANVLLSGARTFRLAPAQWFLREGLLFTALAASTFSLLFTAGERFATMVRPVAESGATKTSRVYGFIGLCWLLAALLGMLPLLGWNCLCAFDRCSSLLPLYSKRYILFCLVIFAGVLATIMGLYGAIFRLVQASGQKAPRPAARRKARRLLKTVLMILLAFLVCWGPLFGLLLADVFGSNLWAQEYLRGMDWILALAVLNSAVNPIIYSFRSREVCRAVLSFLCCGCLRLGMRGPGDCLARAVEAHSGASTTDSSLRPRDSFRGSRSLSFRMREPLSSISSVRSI

For `CN1CC=C2C(C#N)=C(N)C(C#N)(C#N)[C@H](c3ccoc3)[C@H]2C1`, the AC50 (ORF 73) was 58.9 µM (active), the AC50 (Salmon testes DNA) was 79 µM (active) and the AC50 (Keap1/Nrf2) was 47.9 µM (active). For the same molecule, the EC50 [1] was > 7.94 µM (active) and the EC50 (Troponin, cardiac muscle) was 8.32 µM (active).

With `Nc1cccc2c1C(=O)N(C(=O)/C=C/c1cccc(F)c1)C2=O` the “Absolute IC50 (XBP1)” value (X-box-binding protein 1) was 10 µM, the “Absolute IC50 (CHOP)” value [2] was < 10 µM and the IC50 (Genome polyprotein) was > 100 µM (active).

In the case of `COc1cccc(NC(=O)N2CCCN(Cc3ccccc3F)C2)c1`, the IC50 [3] is reported as > 150 µM (active).

For `COc1ccc2c(c1)sc(N)[n+]2Cc1cc(C)cc2cccnc12`, the EC50 [4] was 6.36 µM (active), the EC50 [5] was 0.711 µM (inconclusive) and the EC50 [6] was 6.36 µM (inconclusive). For the same molecule, the EC50 [7] was 10.3 µM (inconclusive), the EC50 [8] was 0.711 µM (active) and the EC50 [9] was 10.3 µM (active).

For `CCNC(=O)NC(=O)C(C)OC(=O)c1cc2c(C)nn(Cc3ccc(Cl)cc3)c2s1` (stereo unspecified), the EC50 [10] was > 50 µM (inactive).
